According to US20190365675A1, “COMPOSITIONS FOR THE PREVENTION AND/OR TREATMENT OF ALCOHOL USE DISORDERS” (SERVICIO ANDALUZ DE SALUD, priority 2016, published 2019):

How the values were obtained:
Assay type in all cases: in vivo, Wistar rats
[1] = Blood ethanol levels (BEL) during 4-day alcohol intoxication protocol; details: before and after force-feeding; two-way repeated measure ANOVA n.s.
Experimental: (§1) The animals were treated with intragastric (i.g.) ethanol 3 times a day using an i.g. cannula (16G needle, Fisher Scientific, Waltham, Mass., USA), following a protocol based on a slightly modified standard 4-day alcohol intoxication pattern (Bernier et al., 2002a, b) (FIG. 1A). The ethanol doses were administered every 8 h for a total time of 4 days. The rats treated with ethanol received an initial loading dose of 5 g/kg of ethanol in a 30% solution (w/v) and then a maximum maintenance dose of 3 g/kg, which were determined based on blood ethanol levels (BEL). This repeated standard alcohol intoxication paradigm kept BEL intoxication relatively constant in a range of sedation/ataxia (190 to 430 mg/dl, Table 3), according to the 6-point alcohol intoxication behavior scale (Majchrowicz, 1975). The mean dose of ethanol/rat/day (days 1-4) was 7.06 g/kg, similar to other studies (Obernier et al., 2002a, b). To confirm intoxication, BEL was determined in blood samples taken from the tail 120 minutes before and after the second i.g. administration of ethanol of the day, which was done at 3 pm by means of the use of electrochemical detection of an enzymatic reaction with an AM1 alcohol analyzer (Analox Instruments, London, United Kingdom). […]

caspase-8 = assay: Caspase-8 mRNA in frontal cortex after ethanol intoxication; details: OEA pre-treatment
Experimental: The animals were treated with intragastric (i.g.) ethanol 3 times a day using an i.g. cannula (16G needle, Fisher Scientific, Waltham, Mass., USA), following a protocol based on a slightly modified standard 4-day alcohol intoxication pattern (Bernier et al., 2002a, b) (FIG. 1A). The ethanol doses were administered every 8 h for a total time of 4 days. The rats treated with ethanol received an initial loading dose of 5 g/kg of ethanol in a 30% solution (w/v) and then a maximum maintenance dose of 3 g/kg, which were determined based on blood ethanol levels (BEL). This repeated standard alcohol intoxication paradigm kept BEL intoxication relatively constant in a range of sedation/ataxia (190 to 430 mg/dl, Table 3), according to the 6-point alcohol intoxication behavior scale (Majchrowicz, 1975). The mean dose of ethanol/rat/day (days 1-4) was 7.06 g/kg, similar to other studies (Obernier et al., 2002a, b). OEA (5 mg/kg, i.p., except initial dose of 10 mg/kg i.p.; synthesized as described in Giuffrida et al., 2000) was dissolved in the vehicle (5% Tween-80 in saline solution) and injected 10 minutes before each of the administrations of ethanol by an intragastric gavage. […] The quantitative changes in mRNA levels were estimated by means of RT-PCR, carried out in the presence of the SYBR green primer using a 20-L reaction in a Rotor-Gene (Corbett Research®, Mortlake, NSW, Australia). […]

corticosterone = assay: Plasma corticosterone levels (R.I.A.)
Experimental: as §1, with “b).” for “b). To confirm intoxication, BEL was determined in blood samples taken from the tail 120 minutes before and after the second i.g. administration of ethanol of the day, which was done at 3 pm by means of the use of electrochemical detection of an enzymatic reaction with an AM1 alcohol analyzer (Analox Instruments, London, United Kingdom).”
Corticosterone and LPS were measured in plasma by means of the use of radioimmunoassay (R.I.A.) kits available on the market (Coat-A-Count®, Siemens, La., USA) or colorimetric enzymatic reaction (HyCult Biotech, Uden, Netherlands), respectively.

Which results are given for CCCCCCCC/C=C\CCCCCCCC(=O)NCCO [OEA, oleoylethanolamide]?
Effect of OEA pre-treatment on BEL reached during days 2-4 [1]: did not change; Ethanol-induced overexpression of caspase-8 mRNA (caspase-8): reversed; Plasma corticosterone levels in the control animals (corticosterone; control animals (no ethanol)): did not modify; Ethanol-induced increase in plasma corticosterone levels (corticosterone; plasma, 2-4 h after last ethanol, OEA pre-treatment): prevented entirely
